The test system of one data set is Vero cells. Description: Toxicity to Vero cells. The data set is classed as cell-based.
The nature of data set [1]: Hydrolytic stability in buffer solutions of various pH (HPLC). To be noted: phosphate-buffered solution, read-out: half life value (T1/2), hydrolytic stability (converted). It is filed as physicochemical. From the text:
Hydrochloric acid of 0.1 N was used for pH 1 solution. Samples were repeatedly, manually injected onto HPLC at specific time intervals at room temperature. The peak areas of the compounds were monitored by UV detection. […] The “half life value, T1/2,” means the time required for one-half of the total amount of a compound in a solution to be degraded by hydrolysis processes when the rate of removal is nearly exponential. […] A first order calculation was used to determine the rate constant for each buffer on the loss of peak area over time.

Data set [2] concerns HSV-1. Briefly: Herpetic keratitis in mice with cornea inoculated by HSV-1 (eye-drops). The data set is classed as in vivo, Balb/c mice. As to conditions: eye-drops 0.34% or 0.2% w/v in saline, 3 times a day; for corneal cloudiness, vehicle-treated group versus treated group: day-14; for severity of ocular disease symptoms (corneal clouding, stromal keratitis, blepharitis): day-21. On the procedure: The effect of Compound 3 on herpetic keratitis was investigated in mice with cornea inoculated by HSV-1. Balb/c mice (eight weeks old, 25 g body weight) were anesthetized with isoflurane, and epithelium of both right and left corneas lightly scratched in a cross-hatch pattern (four horizontal and four vertical scratches) with a 26-gauge needle under a microscope. The mouse cornea was inoculated with 5 μL of HSV-1 suspension containing 2.5×10^6 plaque-forming units (PFU), or saline for control. After the inoculations, mice were assigned randomly to treatment groups (4˜5 mice per group), with both eyes treated with Compound 3 or ganciclovir or vehicle (saline) after lightly anaesthetized. Eight hours after HSV-1 inoculation, 1 drop (10 μl) of 0.34% or 0.2% w/v solution of compound 3 or ganciclovir in saline with anti-fungi agent (0.05 w/v amphotericin-B) was applied to each eye daily, 3 times a day. The keratitis was graded, recorded and scored daily for 21 days, and the eyes were examined with a microscopic camera at frequent intervals.

The nature of data set [3]: Aqueous solubility (HPLC). It is filed as physicochemical. To be noted: thermodynamic from solid, water. The method, then:
The solubility experiment procedure was modified due to chemical stabilities. Briefly, an excess of a test compound was added 0.5 mL of water in an one mL of vial, pre-equilibrated, and then sonicated at 23° C. for 3 min. Aliquots were filtered and analyzed for drug contents. The concentration of each compound was determined by HPCL, at λ=254 nm, 23° C. The aliquot containing the analyte was diluted 100× due to the detection limit of the instrument.

Data set [4] has as its system HSV-1. Description: Attenuation of HSV-1 induced cytopathic effects on Vero cells. As to conditions: HSV-1 at 10^-4 titration, treated 4 days, different concentrations. It is filed as cell-based. On the procedure: Human epithelial (HEp-2) cells were cultured in MEM supplemented with 10% fetal calf serum and 10% heat activated newborn calf serum. Vero cells were cultured in RPMI-1640 and 10% heat activated newborn calf serum. Penicillin (1000 I.U./ml), streptomycin (100 μg/ml), and bicarbonate buffer were present in the medium, and cells were maintained at 37° C., 5% CO2, humidified atmosphere, and subcultured 2˜3 times a week.
The antiviral activity of Compound 3 was determined by evaluating the attenuation in HSV-1 induced cytopathic effects on Vero cells. Vero cells (10,000 cells/well) in a 96-well culture plate were infected with an increasingly diluted HSV-1 virus solution (10^−3 to 10^−5) in L15 medium. After 2 h incubation the unadsorbed virus was removed, the cell monolayer was washed with PBS. […] Every 24 hr the cytopathic effects were observed and photographed under microscope (FIG. 2). Anti-HSV-1 activity was determined by inhibition of cytopathic effect as compared with control. The cytopathic effects effects after HSV-1 propagation HSV-1 between Vero cells were quantified in terms of 50% tissue culture infective dose (TCID50, which was used to determine the infectious titer of HSV-1 which can cause cytopathic effects in culture).

The mark [5] stands for this setting: 23° C., sonicated 3 min, read-out: aqueous solubility.

By melting point is commonly meant the temperature, or range, at which the solid turns liquid. Broadly, the solubility is the dissolved amount per volume that the medium holds.

In brackets after ≈: the same amount, converted by molar mass. Read-outs that look alike come from different tables or passages of the source. Some results are limits rather than exact numbers.

As to `Nc1nc2c(ncn2COC(CO)COC(=O)C2(N)CC2)c(=O)[nH]1` (stereo not drawn) [Compound 3, 1-amino-cyclopropanecarboxylic acid 2-(2-amino-6-oxo-1,6-dihydro-purin-9-ylmethoxy)-3-hydroxypropyl ester], the melting point was over 300 °C. For the same molecule, in the data set on Vero cells, the “toxicity to Vero cells” value is “nontoxic to Vero cells”. Further, in data set [1] (pH 7.4, 40° C.), the half-life at 1 mg/mL was 53 h. Also, the half-life at 1 mg/mL in data set [1] (acidic solution (pH 4), 40° C.) was over 300 h. Also, in the data set with HSV-1 [2], the “corneal cloudiness, vehicle-treated group versus treated group” value is given as “much more significant” and the “severity of ocular disease symptoms (corneal clouding, stromal keratitis, blepharitis)” value is on record as “eliminated the extra-ocular keratitis morphologies almost entirely”. The solubility at 3 min in data set [3] (setting [5]) was determined as 180 mg/mL (≈ 532 mM). In the data set with HSV-1 [4], the “cytopathogenic effects of HSV-1 on Vero cells (morphological evaluation)” value is listed as “reduced the cytopathogenic effects of HSV-1 on Vero cells in a concentration-dependent manner”.
For the molecule `CNC1(C(=O)OCC(CO)OCn2cnc3c(=O)[nH]c(N)nc32)CC1` (stereo not drawn) [Compound 4, 1-Methylamino-cyclopropanecarboxylic acid 2-(2-amino-6-oxo-6-dihydro-purin-9-ylmethoxy)-3-hydroxypropyl ester], the solubility at 3 min in data set [3] (setting [5]) came out at 227 mg/mL (≈ 644 mM).
Turning to `Nc1nc2c(ncn2COC(CO)COC(=O)C2(N)CC2c2ccc(Br)cc2)c(=O)[nH]1` (stereo not drawn) [Compound 5, 1-Amino-2-(4-bromo-phenyl)-cyclopropanecarboxylic acid 2-(2-amino-6-oxo-1,6-dihydro-purin-9-ylmethoxy)-3-hydroxypropyl ester], in data set [1] (pH 7.4, 40° C.), the half-life at 1 mg/mL was 85 h. For the same molecule, the solubility at 3 min in data set [3] (setting [5]) came to 155 mg/mL (≈ 314 mM).
`Nc1nc2c(ncn2COC(CO)COC(=O)C2(N)CC2c2ccccc2)c(=O)[nH]1` (stereo not drawn) [Compound 6, 1-Amino-2-phenyl-cyclopropanecarboxylic acid 2-(2-amino-6-oxo-1,6-dihydro-purin-9-ylmethoxy)-3-hydroxypropyl ester]: in data set [1] (pH 7.4, 40° C.), the half-life at 1 mg/mL is 75 h. In addition, the solubility at 3 min in data set [3] (setting [5]) is 170 mg/mL (≈ 410 mM).
The molecule `CC1(C)CC1(N)C(=O)OCC(CO)OCn1cnc2c(=O)[nH]c(N)nc21` (stereo not drawn) [Compound 7, 1-Amino-2,2-dimethyl-cyclopropanecarboxylic acid 2-(2-amino-6-oxo-1,6-dihydro-purin-9-ylmethoxy)-3-hydroxypropyl ester] came in with a melting point of over 300 °C. For the same molecule, the half-life at 1 mg/mL in data set [1] (pH 7.4, 40° C.) is 68 h. For the same molecule, the solubility at 3 min in data set [3] (setting [5]) turned out to be 213 mg/mL (≈ 581 mM).
`CC1CC1(N)C(=O)OCC(CO)OCn1cnc2c(=O)[nH]c(N)nc21` (stereo not drawn) [Compound 8, 1-Amino-2-methyl-cyclopropanecarboxylic acid 2-(2-amino-6-oxo-1,6-dihydro-purin-9-ylmethoxy)-3-hydroxypropyl ester]: the half-life at 1 mg/mL in data set [1] (pH 7.4, 40° C.) is 58 h.
In the case of `Nc1nc2c(ncn2COC(CO)COC(=O)C2(N)CC2C(F)(F)F)c(=O)[nH]1` (stereo not drawn) [Compound 9, 1-Amino-2-trifluoromethyl-cyclopropanecarboxylic acid 2-(2-amino-6-oxo-1,6-dihydro-purin-9-ylmethoxy)-3-hydroxypropyl ester], the half-life at 1 mg/mL in data set [1] (pH 7.4, 40° C.) was 33 h. The solubility at 3 min in data set [3] (setting [5]) was 261 mg/mL (≈ 642 mM).
For `Nc1nc2c(ncn2COC(CO)COC(=O)C2(N)CC2c2ccco2)c(=O)[nH]1` (stereo not drawn) [Compound 10, 1-Amino-2-furan-2-yl-cyclopropanecarboxylic acid 2-(2-amino-6-oxo-1,6-dihydro-purin-9-ylmethoxy)-3-hydroxypropyl ester], the half-life at 1 mg/mL in data set [1] (pH 7.4, 40° C.) was 29 h. In addition, the solubility at 3 min in data set [3] (setting [5]) amounted to 260 mg/mL (≈ 643 mM).
With `Nc1nc2c(ncn2COC(CO)COC(=O)C2(N)CC2c2ccccn2)c(=O)[nH]1` (stereo not drawn) [Compound 11, 1-Amino-2-pyridin-2-yl-cyclopropanecarboxylic acid 2-(2-amino-6-oxo-1,6-dihydro-purin-9-ylmethoxy)-3-hydroxypropyl ester], in data set [1] (pH 7.4, 40° C.), the half-life at 1 mg/mL was 43 h. Besides, the solubility at 3 min in data set [3] (setting [5]) was found to be 253 mg/mL (≈ 609 mM).
Take `Nc1nc(O)c2ncn(COC(CO)CO)c2n1` [ganciclovir, reference compound]: the “toxicity to Vero cells” value with Vero cells (concentrations used in the antiviral test) was “nontoxic to Vero cells”. Also, in the data set on HSV-1 [2], the “corneal cloudiness, vehicle-treated group versus treated group” value is “much more significant”; the “severity of ocular disease symptoms (corneal clouding, stromal keratitis, blepharitis)” value is “reduced the severities in stromal keratitia and corneal clouding dramatically, but blephartitis still existed”. The concentration in solution in data set [3] (23 °C) (solubility at 3 min) was 2.6 mg/mL (≈ 10.2 mM).

The record behind these values is patent publication US8969361B2, “Cyclopropanecarboxylate esters of purine analogues” (Annji Pharmaceutical Co., Ltd., priority 2012, dated 2015).
